Laboratory results reported in PMC9299836 (eLife, 2022).
“And” between values parts separate entries of the source, which are not always exact repeats. Equal values may be shown once. Read-outs that look alike come from different tables or passages of the source.

Experiments:
mGluR2 [1] = target: mGluR2 (Mus musculus, UniProt Q14BI2, A548F); test: Live-cell FRET, azi-CRD (cysteine-rich domain) sensor in HEK293T cells; details: for Normalized FRET response, Mean (azi-CRD agonist DRC): maximal responses normalized to 1mM glutamate
Sequence of mGluR2 (Mus musculus, UniProt Q14BI2, A548F) (Q14BI2 19-872 A548F): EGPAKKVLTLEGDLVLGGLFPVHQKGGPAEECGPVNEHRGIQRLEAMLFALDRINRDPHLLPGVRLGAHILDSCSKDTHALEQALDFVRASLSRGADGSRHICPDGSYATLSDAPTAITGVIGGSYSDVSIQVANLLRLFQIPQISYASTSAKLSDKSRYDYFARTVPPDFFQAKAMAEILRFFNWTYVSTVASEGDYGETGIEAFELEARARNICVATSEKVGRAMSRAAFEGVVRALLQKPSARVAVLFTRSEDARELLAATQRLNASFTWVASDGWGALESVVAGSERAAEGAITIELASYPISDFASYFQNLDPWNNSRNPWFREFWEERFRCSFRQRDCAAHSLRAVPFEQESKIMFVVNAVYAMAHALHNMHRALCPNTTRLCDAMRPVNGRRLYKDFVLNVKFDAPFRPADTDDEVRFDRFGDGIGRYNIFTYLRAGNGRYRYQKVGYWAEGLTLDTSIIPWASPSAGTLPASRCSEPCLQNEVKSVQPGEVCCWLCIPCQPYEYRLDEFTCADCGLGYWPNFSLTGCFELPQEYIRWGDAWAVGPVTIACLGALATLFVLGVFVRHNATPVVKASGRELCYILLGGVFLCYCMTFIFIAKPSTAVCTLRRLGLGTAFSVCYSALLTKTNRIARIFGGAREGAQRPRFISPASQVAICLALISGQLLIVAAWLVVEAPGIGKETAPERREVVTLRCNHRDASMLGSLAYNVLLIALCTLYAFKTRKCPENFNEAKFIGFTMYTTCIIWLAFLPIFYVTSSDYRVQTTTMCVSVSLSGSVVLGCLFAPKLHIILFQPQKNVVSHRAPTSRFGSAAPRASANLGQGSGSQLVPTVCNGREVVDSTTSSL

mGluR2 [2] = target: T1, mGluR2 (Mus musculus, UniProt Q14BI2); test: Functional calcium imaging, SNAP-mGluR2 (no FLAG-tag) with chimeric G protein Gqo5 in HEK293T cells; assay type: cell-based; set-up: Full length mGluR2 construct with an amber codon (TAG) mutation of amino acid A548 (azi-CRD) or N-terminal SNAP-tag (SNAP-mGluR2); host or cells: HEK293T; details: for Intracellular Ca2+ response, Mean / Intracellular Ca2+ response: normalized to 1mM glutamate; for Intracellular Ca2+ response: single experiments
T1 sequence (Q14BI2 19-872): as the sequence (Q14BI2 19-872 A548F) above, with F530A counted along it

mGluR2 [3] = target: mGluR2 (Mus musculus, UniProt Q14BI2, INS715F); test: Live-cell FRET, azi-ECL2 (7TM domain, extracellular loop 2) sensor in HEK293T cells;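 also: Cy3/Cy5 click-labeled sensor, whole-membrane ROIs per cell, apparent FRET after bleed-through correction, ΔFRET as treatment minus pre-treatment signal, at room temperature, at least three biological replicates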
Sequence of mGluR2 (Mus musculus, UniProt Q14BI2, INS715F) (Q14BI2 with tags, fused parts or gaps INS715F): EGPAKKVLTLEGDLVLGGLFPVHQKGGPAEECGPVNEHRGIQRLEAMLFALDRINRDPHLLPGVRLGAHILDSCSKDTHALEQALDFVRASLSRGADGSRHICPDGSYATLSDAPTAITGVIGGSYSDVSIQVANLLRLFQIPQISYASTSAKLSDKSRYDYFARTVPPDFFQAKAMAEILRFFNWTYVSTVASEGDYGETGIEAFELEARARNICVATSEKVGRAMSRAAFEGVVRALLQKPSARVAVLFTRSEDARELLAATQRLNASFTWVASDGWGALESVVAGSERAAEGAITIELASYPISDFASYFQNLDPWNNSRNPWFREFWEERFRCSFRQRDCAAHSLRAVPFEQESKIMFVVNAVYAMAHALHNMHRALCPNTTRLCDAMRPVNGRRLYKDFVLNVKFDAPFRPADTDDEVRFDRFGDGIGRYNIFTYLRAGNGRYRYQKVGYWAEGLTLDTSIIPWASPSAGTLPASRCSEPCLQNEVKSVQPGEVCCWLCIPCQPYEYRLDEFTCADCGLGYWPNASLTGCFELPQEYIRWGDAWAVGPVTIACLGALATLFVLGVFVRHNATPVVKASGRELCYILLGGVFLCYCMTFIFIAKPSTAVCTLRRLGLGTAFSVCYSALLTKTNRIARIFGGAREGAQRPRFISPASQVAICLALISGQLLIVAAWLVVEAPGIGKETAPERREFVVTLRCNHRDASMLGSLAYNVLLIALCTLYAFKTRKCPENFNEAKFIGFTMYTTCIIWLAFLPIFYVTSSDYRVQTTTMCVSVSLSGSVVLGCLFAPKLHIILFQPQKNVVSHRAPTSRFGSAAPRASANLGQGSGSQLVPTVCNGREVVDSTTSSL

mGluR2 [4] = target: T1, mGluR2; test: Live-cell FRET, SNAP-m2 (VFT domain) inter-subunit sensor in HEK293T cells; details: for Normalized FRET response, Mean (SNAP-m2 agonist DRC): maximal responses normalized to 1mM glutamate;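 as to all read-outs here: apparent FRET efficiency from whole-membrane ROIs of single cells, corrected for donor bleed-through and background, ΔFRET as treatment minus pretreatment signal, recorded at room temperature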

In the case of N[C@@]1(C(=O)O)CN[C@@H](C(=O)O)C1 [(2R,4R)-APDC], the Hill slope (mGluR2 [1]; azi-CRD sensor, orthosteric agonist alone) is reported as 1.10, the “Live-cell FRET max response normalized to 1mM glutamate” value (mGluR2 [1]; azi-CRD sensor, (2R,4R)-APDC, individual values (N=13)) is reported as 1.025 and 1.046 and 1.029 and 1.018 and 1.041 and 0.9926 and 1.05 and 1.031 and 1.033 and 1.059 and 0.9828 and 0.9967 and 0.9994 and the “Mean max response (normalized max ΔFRET)” value (mGluR2 [1]; azi-CRD, agonist alone (1 mM glutamate, 100 μM DCG-IV, 20 μM LY379268, 100 μM APDC), normalized to 1 mM glutamate) is reported as 1.02. The “Normalized Max ΔFRET” value (mGluR2 [1]; azi-CRD, 100μM agonist, individual cells, normalized to 1mM glutamate) was 105.882 and 99.2629 and 105.009 and 103.1 and 103.252 and 98.2759 and 99.67 and 99.937 and 102.531 and 104.556 and 102.893 and 101.835 and 104.136, the “Normalized Max ΔFRET, Mean” value (mGluR2 [1]; azi-CRD, 100μM agonist, mean of cells, normalized to 1mM glutamate) was 102.334 and the “Normalized FRET response, Mean (azi-CRD agonist DRC)” value (mGluR2 [1]; log[ligand] (M) -4) was 1.023. For the same compound, the “Normalized FRET response, Mean (azi-CRD agonist DRC)” value (mGluR2 [1]; log[ligand] (M) -4.1549) was 1.003, the “Normalized FRET response, Mean (azi-CRD agonist DRC)” value (mGluR2 [1]; log[ligand] (M) -4.52288) was 0.929 and the “Normalized FRET response, Mean (azi-CRD agonist DRC)” value (mGluR2 [1]; log[ligand] (M) -5) was 0.7432. For the same compound, the “Normalized FRET response, Mean (azi-CRD agonist DRC)” value (mGluR2 [1]; log[ligand] (M) -5.39794) was 0.4945, the “Normalized FRET response, Mean (azi-CRD agonist DRC)” value (mGluR2 [1]; log[ligand] (M) -5.82391) was 0.2779 and the “Normalized FRET response, Mean (azi-CRD agonist DRC)” value (mGluR2 [1]; log[ligand] (M) -6.52288) was 0.07413. The “Normalized FRET response, Mean (azi-CRD agonist DRC)” value (mGluR2 [1]; log[ligand] (M) -7) was 0, the EC50 (mGluR2 [1]; read-out: Mean half-maximum effective concentration (EC50), azi-CRD sensor, orthosteric agonist alone) was 6.5 µM and the “Normalized Max Intracellular Ca2+ Response, individual experiments” value (mGluR2 [2]; 100 μM DCG-IV, 10 μM LY379268, 300 μM APDC, normalized to 1 mM glutamate, single replicate) was 1.151 and 1.196 and 0.9567. For the same compound, the “Normalized Max Intracellular Ca2+ Response, mean” value (mGluR2 [2]; 1 mM Glu, 100 μM DCG-IV, 10 μM LY379268, 300 μM APDC, normalized to 1 mM glutamate) was 1.101, the “Intracellular Ca2+ response, Mean” value (mGluR2 [2]; log[agonist] (M) -3.52288) was 1.101 and the “Intracellular Ca2+ response” value (mGluR2 [2]; log[agonist] (M) -3.52288) was 1.101. The “Intracellular Ca2+ response, Mean” value (mGluR2 [2]; log[agonist] (M) -3.82391) was 1.121, the “Intracellular Ca2+ response” value (mGluR2 [2]; log[agonist] (M) -3.82391) was 1.13 and 1.129 and 1.105 and the “Intracellular Ca2+ response, Mean” value (mGluR2 [2]; log[agonist] (M) -4) was 1.103. The “Intracellular Ca2+ response” value (mGluR2 [2]; log[agonist] (M) -4) was 1.155 and 1.085 and 1.068, the “Intracellular Ca2+ response, Mean” value (mGluR2 [2]; log[agonist] (M) -4.52288) was 0.9624 and the “Intracellular Ca2+ response” value (mGluR2 [2]; log[agonist] (M) -4.52288) was 0.9835 and 0.9555 and 0.9483. For the same compound, the “Intracellular Ca2+ response, Mean” value (mGluR2 [2]; log[agonist] (M) -5) was 0.7274, the “Intracellular Ca2+ response” value (mGluR2 [2]; log[agonist] (M) -5) was 0.6253 and 0.7115 and 0.8453 and the “Intracellular Ca2+ response, Mean” value (mGluR2 [2]; log[agonist] (M) -5.39794) was 0.3932. For the same compound, the “Intracellular Ca2+ response” value (mGluR2 [2]; log[agonist] (M) -5.39794) was 0.2825 and 0.3895 and 0.5075, the “Intracellular Ca2+ response, Mean” value (mGluR2 [2]; log[agonist] (M) -6) was 0 and the “Intracellular Ca2+ response” value (mGluR2 [2]; log[agonist] (M) -6) was 0. The “Intracellular Ca2+ response, Mean” value (mGluR2 [2]; log[agonist] (M) -6.52288) was 0, the “Intracellular Ca2+ response” value (mGluR2 [2]; log[agonist] (M) -6.52288) was 0 and the “Intracellular Ca2+ response, Mean” value (mGluR2 [2]; log[agonist] (M) -7) was 0. The “Intracellular Ca2+ response” value (mGluR2 [2]; log[agonist] (M) -7) was 0, the “Intracellular Ca2+ response, Mean” value (mGluR2 [2]; log[agonist] (M) -7.69897) was 0 and the “Intracellular Ca2+ response” value (mGluR2 [2]; log[agonist] (M) -7.69897) was 0. For the same compound, the “Intracellular Ca2+ response, Mean” value (mGluR2 [2]; log[agonist] (M) -8) was 0, the “Intracellular Ca2+ response” value (mGluR2 [2]; log[agonist] (M) -8) was 0 and the EC50 (mGluR2 [2]; one value per experiment, read-out: EC50, intracellular Ca2+ response) was 4.48 µM and 8.58 µM and 6.56 µM. For the same compound, the “Mean max response (normalized max ΔFRET)” value (mGluR2 [3]; azi-ECL2, agonist alone (1 mM glutamate, 100 μM DCG-IV, 20 μM LY379268, 100 μM APDC), normalized to 1 mM glutamate) was 1.05, the “Normalized ΔFRET response, Mean (agonist DRC)” value (from here on “Normalized ΔFRET response, Mean”) (mGluR2 [3]; azi-ECL2, log[agonist] (M) -4, normalized to 1 mM glutamate) was 1.046 and the “Normalized ΔFRET response, Mean” value (mGluR2 [3]; azi-ECL2, log[agonist] (M) -4.1549, normalized to 1 mM glutamate) was 1.0205. The “Normalized ΔFRET response, Mean” value (mGluR2 [3]; azi-ECL2, log[agonist] (M) -4.52288, normalized to 1 mM glutamate) was 0.9248, the “Normalized ΔFRET response, Mean” value (mGluR2 [3]; azi-ECL2, log[agonist] (M) -5, normalized to 1 mM glutamate) was 0.7108 and the “Normalized ΔFRET response, Mean” value (mGluR2 [3]; azi-ECL2, log[agonist] (M) -5.39794, normalized to 1 mM glutamate) was 0.4486. The “Normalized ΔFRET response, Mean” value (mGluR2 [3]; azi-ECL2, log[agonist] (M) -5.82391, normalized to 1 mM glutamate) was 0.2358, the “Normalized ΔFRET response, Mean” value (mGluR2 [3]; azi-ECL2, log[agonist] (M) -6.52288, normalized to 1 mM glutamate) was 0.04024 and the “Normalized ΔFRET response, Mean” value (mGluR2 [3]; azi-ECL2, log[agonist] (M) -7, normalized to 1 mM glutamate) was 0. The “Normalized Max ΔFRET, Mean” value (mGluR2 [3]; azi-ECL2, 100μM agonist, mean of cells, normalized to 1mM glutamate) was 104.617, the Hill slope (mGluR2 [3]; azi-ECL2 sensor, orthosteric agonist alone) was 1.14 and the EC50 (mGluR2 [3]; read-out: EC50, live-cell FRET titration, azi-ECL2 sensor, (2R,4R)-APDC, individual cell values (N=13)) was 8.97 µM and 10.9 µM and 18.9 µM and 4.32 µM and 2.57 µM and 2.14 µM and 6.27 µM and 6.18 µM and 3.15 µM and 4.64 µM and 4.05 µM and 5.53 µM. The EC50 (mGluR2 [3]; read-out: Mean half-maximum effective concentration (EC50), azi-ECL2 sensor, orthosteric agonist alone) was 6.7 µM, the “Mean max response (normalized max ΔFRET)” value (mGluR2 [4]; SNAP-m2 (VFT), agonist alone (1 mM glutamate, 100 μM DCG-IV, 20 μM LY379268, 100 μM APDC), normalized to 1 mM glutamate) was 0.96 and the “Normalized Max ΔFRET” value (mGluR2 [4]; SNAP-m2, 100μM agonist, individual cells, normalized to 1mM glutamate) was 103.479 and 93.3266 and 93.5994 and 94.2433 and 93.7977 and 94.1947 and 102.7 and 100.974 and 101.936 and 101.611 and 93.0019 and 94.3775 and 90.2119 and 91.2088. For the same compound, the “Normalized Max ΔFRET, Mean” value (mGluR2 [4]; SNAP-m2, 100μM agonist, mean of cells, normalized to 1mM glutamate) was 96.333, the Hill slope (mGluR2 [4]; SNAP-m2 sensor, orthosteric agonist alone) was “–1.10” and the “Live-cell FRET max response normalized to 1mM glutamate” value (mGluR2 [4]; SNAP-m2 sensor, (2R,4R)-APDC, individual values (N=14)) was 1.016 and 0.93 and 0.9438 and 0.9021 and 0.9121 and 0.9333 and 0.936 and 0.9424 and 0.938 and 0.9419 and 1.035 and 1.027 and 1.01 and 1.019. The “Normalized FRET response, Mean (SNAP-m2 agonist DRC)” value (mGluR2 [4]; log[ligand] (M) -4) was -0.9633, the “Normalized FRET response, Mean (SNAP-m2 agonist DRC)” value (mGluR2 [4]; log[ligand] (M) -4.52288) was -0.8729 and the “Normalized FRET response, Mean (SNAP-m2 agonist DRC)” value (mGluR2 [4]; log[ligand] (M) -5) was -0.684. The “Normalized FRET response, Mean (SNAP-m2 agonist DRC)” value (mGluR2 [4]; log[ligand] (M) -5.39794) was -0.4889, the “Normalized FRET response, Mean (SNAP-m2 agonist DRC)” value (mGluR2 [4]; log[ligand] (M) -6) was -0.1727 and the “Normalized FRET response, Mean (SNAP-m2 agonist DRC)” value (mGluR2 [4]; log[ligand] (M) -6.52288) was -0.05437. The “Normalized FRET response, Mean (SNAP-m2 agonist DRC)” value (mGluR2 [4]; log[ligand] (M) -7) was 0, the “Normalized FRET response, Mean (SNAP-m2 agonist DRC)” value (mGluR2 [4]; log[ligand] (M) -7.69897) was 0 and the EC50 (mGluR2 [4]; read-out: Live-cell FRET titration EC50, SNAP-m2, agonist alone, individual experiments) was 2.88 µM and 3.03 µM and 3.16 µM and 22.1 µM and 5.53 µM and 4.87 µM. The EC50 (mGluR2 [4]; read-out: Mean half-maximum effective concentration (EC50), SNAP-m2 sensor, orthosteric agonist alone) was 6.9 µM.
